Assays:
Type in all cases: in vivo
[1] = tested on: Western Flower thrips (Frankliniella occidentalis); test: Insecticidal test on western flower thrips, kidney bean leaf pieces; details: 96 h, 4 days after treatment, read-out: insecticidal efficacy (corrected mortality rate) against western flower thrips
From the text: Insecticidal Test on Western Flower thrips (Frankliniella occidentalis)
Female adults of western flower thrips were inoculated onto kidney bean leaf pieces, and allowed to lay eggs thereon for one day, then the female adults were removed. After 3 days, the hatched larvae on the leaf pieces were counted, and then the agrochemical dispersions diluted to 50 ppm or 500 ppm, each of which contained the compound described in Tables 1 to 4 as an active ingredient were applied. The number of larvae of the species surviving at 4 days after the treatment was counted, and the corrected mortality rate was calculated according to the formula shown below, and the insecticidal efficacy was evaluated according to the criteria of Test Example 1. This test was conducted in duplicate. Corrected mortality rate (%)=(Survival rate in a non-treatment plot−Survival rate in a treatment plot)/(Survival rate in a non-treatment plot)×100 [Expression 3]

[2] = tested on: Small Brown Planthopper (Laodelphax striatellus); test: Insecticidal test on small brown planthopper, dip treatment of rice seedlings; details: 192 h, rice seedling dip, 8 days after inoculation, read-out: insecticidal efficacy (corrected mortality rate) against small brown planthopper
From the text: Insecticidal Test on Small Brown Planthopper (Laodelphax striatellus)
The compounds represented by the general formula (1) of the present invention or salts thereof were separately dispersed in water and diluted to 50 ppm or 500 ppm. Rice plant seedlings (variety: Nihonbare) were dipped in the agrochemical dispersions for 30 seconds. After air-dried, each seedling was put into a separate glass test tube and inoculated with ten 3rd-instar larvae of small brown planthopper, and then the glass test tubes were capped with cotton plugs. At 8 days after the inoculation, the numbers of surviving larvae and dead larvae were counted, the corrected mortality rate was calculated according to the formula shown below, and the insecticidal efficacy was evaluated according to the criteria of Test Example 1. Corrected mortality rate (%)=(Survival rate in a non-treatment plot−Survival rate in a treatment plot)/(Survival rate in a non-treatment plot)×100 [Expression 2]

[3] = tested on: Diamondback moth (Plutella xylostella); test: Insecticidal test on diamondback moth, dip treatment of Chinese cabbage seedlings with laid eggs; details: 144 h, 6 days after treatment, read-out: insecticidal efficacy (corrected mortality rate) against diamondback moth
From the text: Insecticidal Test on Diamondback moth (Plutella xylostella)
Adults of diamondback moth were released onto Chinese cabbage seedlings and allowed to lay eggs thereon. At 2 days after the release of the adults, the Chinese cabbage seedlings with laid eggs were dipped for about 30 seconds in agrochemical dispersions diluted to 50 ppm or 500 ppm, each of which contained a different compound represented by the general formula (1) of the present invention as an active ingredient. After air-dried, the seedlings were kept in a thermostatic chamber at 25° C. At 6 days after the dip treatment, the number of surviving larvae per plot was counted, the corrected mortality rate was calculated according to the formula shown below, and the insecticidal efficacy was evaluated according to the criteria shown below. This test was conducted in triplicate using 10 adults of diamondback moth per plot. Corrected mortality rate (%)=(Survival rate in a non-treatment plot−Survival rate in a treatment plot)/(Survival rate in a non-treatment plot)×100 [Expression 1] Criteria: • A: the mortality rate is 100%. • B: the mortality rate is 90 to 99%. • C: the mortality rate is 80 to 89%. • D: the mortality rate is 50 to 79%. • E: the mortality rate is 0 to 49%.

CSC(Nc1ccc(F)cc1)=C1C(=O)CN(c2ccc(C#N)nc2)N(C(=O)C2CC2)C1=O [Compound No. 1-44, (4EZ)-5-(2-(cyclopropanecarbonyl)-4-(((4-fluorophenyl)amino)(methylthio)methylene)-3,5-dioxo-tetrahydropyridazin-1(2H)-yl)picolinonitrile]
100%: mortality at 50 ppm [1] | mortality at 500 ppm [1] | mortality at 50 ppm [2] | mortality at 500 ppm [2] | mortality at 500 ppm [3]

CSC(Nc1ccc(F)cc1)=C1C(=O)CN(c2ccc(C(F)(F)F)nc2)N(C(=O)OC(C)(C)C)C1=O [Compound No. 1-63, tert-butyl (5EZ)-5-(((4-fluorophenyl)amino)(methylthio)methylene)-4,6-dioxo-2-[6-(trifluoromethyl)pyridin-3-yl]-tetrahydropyridazine-1(2H)-carboxylate]
100%: mortality at 50 ppm [1] | mortality at 500 ppm [1] | mortality at 50 ppm [2] | mortality at 500 ppm [2] | mortality at 50 ppm ([3]; 50 ppm) | mortality at 500 ppm [3]

CSC(Nc1ccc(F)cc1)=C1C(=O)CN(c2ccc(C#N)nc2)N(C)C1=O [Compound No. 1-197, (4EZ)-5-(4-(((4-fluorophenyl)amino)(methylthio)methylene)-2-methyl-3,5-dioxo-tetrahydropyridazin-1(2H)-yl)picolinonitrile]
100%: mortality at 50 ppm [1] | mortality at 500 ppm [1] | mortality at 50 ppm [2] | mortality at 500 ppm [2]

CCCNC(=O)N1C(=O)C(=C(Nc2ccc(F)cc2)SC)C(=O)CN1c1ccc(C#N)nc1 [Compound No. 1-182, (5EZ)-2-(6-cyanopyridin-3-yl)-5-(((4-fluorophenyl)amino)(methylthio)methylene)-4,6-dioxo-N-propyl-tetrahydropyridazine-1(2H)-carboxamide]
100%: mortality at 50 ppm [2] | mortality at 500 ppm [2]
